According to ChEMBL document CHEMBL4152224, “The Identification of Potent, Selective, and Orally Available Inhibitors of Ataxia Telangiectasia Mutated (ATM) Kinase: The Discovery of AZD0156 (8-{6-[3-(Dimethylamino)propoxy]pyridin-3-yl}-3-methyl-1-(tetrahydro-2 H-pyran-4-yl)-1,3-dihydro-2 H-imidazo[4,5- c]quinolin-2-one)” (J Med Chem, 2018):
In brackets after ≈: the same amount, converted by molar mass.

Tests used:
[1] = Apparent permeability across apical to basolateral side in MDCK cells overexpressing MDR1; type: ADME, cell-based, Canis lupus familiaris; details: dog
in vitro = details: dog, MDCK-MDR1
Description: Efflux ratio of apparent permeability across basolateral to apical over apical to basolateral side in MDCK cells overexpressing MDR1

[2] = Intrinsic clearance in rat hepatocytes assessed per million cells
[3] = biological target: Serine/threonine-protein kinase ATR (Homo sapiens, UniProt Q13535)
[4] = Buffer/octanol partition coefficient, log D of the compound at pH 7.4 by shake flask method; type: physicochemical
[5] = Intrinsic clearance in human hepatocytes assessed per million cells
[6] = biological target: Voltage-gated inwardly rectifying potassium channel KCNH2 (Homo sapiens, UniProt Q12809); experiment: Inhibition of human ERG by electrophysiology assay
[7] = Thermodynamic solubility of the compound in 0.1M aqueous phosphate buffer at pH 7.4 after 24 hrs by LC-UV analysis; type: physicochemical; details: read-out: Therm_solubility
[8] = biological target: Serine-protein kinase ATM (Homo sapiens, UniProt Q13315)
[9] = Dissociation constant, pKa of the compound; type: physicochemical

Serine/threonine-protein kinase ATR, sequence (Q13535 whole entry): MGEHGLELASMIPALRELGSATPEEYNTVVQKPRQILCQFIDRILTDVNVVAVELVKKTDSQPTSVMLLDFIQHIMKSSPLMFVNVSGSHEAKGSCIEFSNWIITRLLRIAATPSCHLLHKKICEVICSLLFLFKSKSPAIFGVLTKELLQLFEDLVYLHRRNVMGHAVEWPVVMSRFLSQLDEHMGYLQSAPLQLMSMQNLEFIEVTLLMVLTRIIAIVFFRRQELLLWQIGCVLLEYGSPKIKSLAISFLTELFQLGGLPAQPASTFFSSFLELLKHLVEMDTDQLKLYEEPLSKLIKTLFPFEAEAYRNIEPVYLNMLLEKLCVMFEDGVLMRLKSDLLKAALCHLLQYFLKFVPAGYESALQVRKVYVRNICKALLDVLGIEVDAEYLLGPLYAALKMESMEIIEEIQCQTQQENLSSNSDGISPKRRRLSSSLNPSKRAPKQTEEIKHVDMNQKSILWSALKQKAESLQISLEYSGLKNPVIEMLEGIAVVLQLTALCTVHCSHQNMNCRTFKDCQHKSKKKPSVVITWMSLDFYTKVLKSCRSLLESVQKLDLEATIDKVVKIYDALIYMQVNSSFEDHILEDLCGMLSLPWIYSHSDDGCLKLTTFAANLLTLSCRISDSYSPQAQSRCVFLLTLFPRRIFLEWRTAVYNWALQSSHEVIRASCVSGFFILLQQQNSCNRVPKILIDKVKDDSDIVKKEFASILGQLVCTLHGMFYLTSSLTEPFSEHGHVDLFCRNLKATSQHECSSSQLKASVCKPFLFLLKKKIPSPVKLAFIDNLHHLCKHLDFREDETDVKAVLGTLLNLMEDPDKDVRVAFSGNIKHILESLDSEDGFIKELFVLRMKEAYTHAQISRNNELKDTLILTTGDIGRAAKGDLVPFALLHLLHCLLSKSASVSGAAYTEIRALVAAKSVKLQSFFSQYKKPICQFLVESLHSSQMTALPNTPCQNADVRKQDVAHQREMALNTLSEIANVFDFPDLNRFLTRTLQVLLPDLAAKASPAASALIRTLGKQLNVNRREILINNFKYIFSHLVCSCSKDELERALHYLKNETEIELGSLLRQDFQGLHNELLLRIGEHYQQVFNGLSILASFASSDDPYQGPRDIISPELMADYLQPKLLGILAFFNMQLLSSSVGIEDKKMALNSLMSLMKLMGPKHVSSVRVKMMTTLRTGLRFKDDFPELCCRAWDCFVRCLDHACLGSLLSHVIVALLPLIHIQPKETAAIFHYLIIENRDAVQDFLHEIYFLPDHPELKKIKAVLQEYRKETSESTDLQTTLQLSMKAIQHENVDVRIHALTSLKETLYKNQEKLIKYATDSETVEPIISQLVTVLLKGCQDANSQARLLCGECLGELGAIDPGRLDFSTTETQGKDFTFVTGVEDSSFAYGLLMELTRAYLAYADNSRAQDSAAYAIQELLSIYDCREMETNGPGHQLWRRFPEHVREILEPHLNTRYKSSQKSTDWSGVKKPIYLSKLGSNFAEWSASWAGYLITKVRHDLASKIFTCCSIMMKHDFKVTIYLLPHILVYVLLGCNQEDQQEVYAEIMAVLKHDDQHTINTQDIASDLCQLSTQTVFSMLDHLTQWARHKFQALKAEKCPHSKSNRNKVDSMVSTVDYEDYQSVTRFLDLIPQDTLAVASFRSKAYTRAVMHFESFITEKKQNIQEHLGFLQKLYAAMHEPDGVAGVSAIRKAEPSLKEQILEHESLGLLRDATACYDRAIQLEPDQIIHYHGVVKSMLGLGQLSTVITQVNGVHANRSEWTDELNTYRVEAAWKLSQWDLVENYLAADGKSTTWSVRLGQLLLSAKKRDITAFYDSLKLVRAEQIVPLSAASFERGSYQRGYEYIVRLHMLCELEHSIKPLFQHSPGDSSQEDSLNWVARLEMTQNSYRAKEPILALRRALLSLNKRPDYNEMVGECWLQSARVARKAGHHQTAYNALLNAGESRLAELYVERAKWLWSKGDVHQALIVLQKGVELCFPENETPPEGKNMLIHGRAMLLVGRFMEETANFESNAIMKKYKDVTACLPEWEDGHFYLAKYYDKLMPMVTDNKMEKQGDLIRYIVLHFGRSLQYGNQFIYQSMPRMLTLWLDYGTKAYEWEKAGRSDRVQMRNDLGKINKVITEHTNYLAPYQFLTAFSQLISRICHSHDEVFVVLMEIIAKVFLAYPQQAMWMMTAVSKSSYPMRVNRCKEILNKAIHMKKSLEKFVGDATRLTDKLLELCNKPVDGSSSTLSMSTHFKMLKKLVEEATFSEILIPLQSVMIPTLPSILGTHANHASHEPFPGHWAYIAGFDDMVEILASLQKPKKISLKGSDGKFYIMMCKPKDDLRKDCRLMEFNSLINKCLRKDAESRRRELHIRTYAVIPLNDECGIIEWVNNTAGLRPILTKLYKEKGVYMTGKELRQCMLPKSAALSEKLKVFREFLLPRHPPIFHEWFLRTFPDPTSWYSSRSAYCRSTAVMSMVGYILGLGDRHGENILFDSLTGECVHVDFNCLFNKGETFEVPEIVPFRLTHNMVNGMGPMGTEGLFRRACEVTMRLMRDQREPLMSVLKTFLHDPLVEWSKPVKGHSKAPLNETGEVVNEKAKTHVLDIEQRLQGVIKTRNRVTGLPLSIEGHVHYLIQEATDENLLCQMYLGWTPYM
Voltage-gated inwardly rectifying potassium channel KCNH2, sequence (Q12809 whole entry): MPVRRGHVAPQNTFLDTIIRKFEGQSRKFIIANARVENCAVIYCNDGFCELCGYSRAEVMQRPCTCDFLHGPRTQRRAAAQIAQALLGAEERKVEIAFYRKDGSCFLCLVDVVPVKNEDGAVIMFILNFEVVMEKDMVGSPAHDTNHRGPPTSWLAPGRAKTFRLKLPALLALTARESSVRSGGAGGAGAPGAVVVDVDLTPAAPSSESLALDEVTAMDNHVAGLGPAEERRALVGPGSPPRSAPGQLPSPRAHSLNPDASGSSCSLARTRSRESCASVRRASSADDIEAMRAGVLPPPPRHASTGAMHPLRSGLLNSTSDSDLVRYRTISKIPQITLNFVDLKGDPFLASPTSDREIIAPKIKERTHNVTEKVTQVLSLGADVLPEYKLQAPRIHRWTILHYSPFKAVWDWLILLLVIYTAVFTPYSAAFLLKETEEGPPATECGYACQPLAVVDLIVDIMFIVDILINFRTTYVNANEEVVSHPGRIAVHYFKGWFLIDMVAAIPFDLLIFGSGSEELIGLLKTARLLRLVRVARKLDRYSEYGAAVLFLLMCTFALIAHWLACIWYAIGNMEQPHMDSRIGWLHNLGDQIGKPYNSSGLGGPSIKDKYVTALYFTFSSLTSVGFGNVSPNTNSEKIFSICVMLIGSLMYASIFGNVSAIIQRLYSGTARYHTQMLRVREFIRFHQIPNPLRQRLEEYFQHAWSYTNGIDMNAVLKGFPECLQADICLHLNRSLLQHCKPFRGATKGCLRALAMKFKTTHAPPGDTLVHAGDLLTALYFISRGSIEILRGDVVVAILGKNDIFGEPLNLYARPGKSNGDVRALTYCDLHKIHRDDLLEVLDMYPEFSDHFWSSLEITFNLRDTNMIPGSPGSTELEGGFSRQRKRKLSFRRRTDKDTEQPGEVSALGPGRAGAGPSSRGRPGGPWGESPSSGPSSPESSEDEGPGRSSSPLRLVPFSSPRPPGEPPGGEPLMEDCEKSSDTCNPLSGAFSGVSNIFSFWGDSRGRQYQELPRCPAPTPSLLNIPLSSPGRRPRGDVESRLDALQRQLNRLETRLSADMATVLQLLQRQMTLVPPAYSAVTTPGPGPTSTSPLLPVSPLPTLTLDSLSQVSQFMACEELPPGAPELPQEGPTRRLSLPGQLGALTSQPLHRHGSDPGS

| Structure (SMILES) | Papp A→B [1] [×10⁻⁶ cm/s] | efflux ratio (in vitro) | hepatocyte CLint [2] [µL/min/1e6 cells] | IC50 [3] [µM] | logD [4] | hepatocyte CLint [5] [µL/min/1e6 cells] | IC50 [6] [µM] | solubility thermodynamic at 24 h [7] [µM] | IC50 [8] [µM] | pKa [9] |
| --- | --- | --- | --- | --- | --- | --- | --- | --- | --- | --- |
| CO[C@H]1C[C@@H](n2c(=O)n(C)c3cnc4cc(F)c(-c5ccc(C(=O)NCCN(C)C)nc5)cc4c32)C1 | 2.5 | 11 | 2.9 | > 30 | 1.5 | 4 | > 33 | 980 (≈ 483 µg/mL) | 0.13 | – |
| COCc1ccc(-c2cc3c(N[C@@H](C)c4ccn(C)n4)c(C(N)=O)cnc3cc2F)cn1 | 12 | 8.7 | – | – | – | – | – | – | – | – |
| CO[C@H]1C[C@@H](n2c(=O)n(C)c3cnc4ccc(-c5ccc(OCCCN6CCOCC6)nc5)cc4c32)C1 | – | – | 28 | > 30 | 1.4 | – | – | 980 (≈ 494 µg/mL) | > 28 | 6.7 |
| CO[C@H]1C[C@@H](n2c(=O)n(C)c3cnc4cc(F)c(-c5ccc(NCCN(C)C)nc5)cc4c32)C1 | 3.4 | 11 | 9.6 | > 30 | 1.7 | 2.8 | 24 | > 1000 | 0.006 | – |
| CN(C)CCCOc1ccc(-c2ccc3nnc4c(c3c2)n(C2CCOCC2)c(=O)n4C)cn1 | – | – | 2.5 | > 30 | 0.8 | < 1 | – | – | 0.022 | – |
| COCc1ccc(-c2cc3c(cc2F)ncc2c3n([C@@H](C)C3CCOCC3)c(=O)n2C)cn1 | 27 | 0.8 | 1.6 | > 30 | 2.7 | 22 | 15 | > 1000 | 0.49 | – |
| CO[C@H]1C[C@@H](n2c(=O)n(C)c3cnc4cc(F)c(-c5ccc(OCCCN(C)C)nc5F)cc4c32)C1 | 10 | 2.5 | 9 | – | 2.1 | 14 | 22 | > 1000 | – | – |
| CO[C@H]1C[C@@H](n2c(=O)n(C)c3cnc4ccc(-c5ccc(OCCCN(C)C)nc5F)cc4c32)C1 | 4.2 | – | 9.3 | – | 2 | 15 | > 33 | > 1100 | – | – |
| CO[C@H]1C[C@@H](n2c(=O)n(C)c3cnc4ccc(-c5ccc(OCCCN6CCCCC6)nc5)cc4c32)C1 | 5.4 | – | 4 | – | 2.2 | 3 | 14 | > 1000 | – | – |
| CN(C)CCCOc1ccc(-c2cc3c(cc2F)ncc2c3n(C3CCOCC3)c(=O)n2C)cn1 | 7.9 | 4.4 | 8.3 | – | 1.5 | 6.8 | > 33 | > 1000 | – | – |
| Cn1c(=O)n([C@H]2CCCOC2)c2c3cc(-c4ccc(OCCCN5CCCCC5)nc4)c(F)cc3ncc21 | 7.1 | 1.4 | 6.2 | – | 2.4 | 4 | 18 | 330 (≈ 171 µg/mL) | 0.0011 | – |
| COCc1ccc(-c2cc3c(cc2F)ncc2c3n([C@H]3C[C@H](OC)C3)c(=O)n2C)cn1 | 28 | 0.6 | 4.3 | > 28 | 3 | 8.4 | 8.9 | 49 (≈ 20.7 µg/mL) | 0.16 | – |
| COCc1ccc(-c2cc3c(cc2F)ncc2c3n([C@H]3CC[C@H](OC)CC3)c(=O)n2C)cn1 | 20 | 0.6 | 10 | > 26 | 3.2 | 10 | 27 | 84 (≈ 37.8 µg/mL) | 0.24 | – |
| CN(C)CCCOc1ccc(-c2ccc3ncc4c(c3c2)n(C2COC2)c(=O)n4C)cn1 | 3.2 | 9.8 | 7.8 | – | 0.7 | < 1 | > 33 | 52 (≈ 22.5 µg/mL) | – | – |
| Cn1c(=O)n(C2CCOCC2)c2c3cc(-c4ccc(OCCC[N+](C)(C)[O-])nc4)ccc3ncc21 | – | – | – | 10 | – | – | – | – | 0.005 | – |
| CN(C)CCCOc1ccc(-c2ccc3ncc4c(c3c2)n([C@H]2C[C@@H](O)C2)c(=O)n4C)cn1 | < 0.2 | > 100 | 2.7 | – | 1.1 | 3.5 | > 33 | > 1000 | – | – |
| CO[C@H]1C[C@@H](n2c(=O)n(C)c3cnc4cc(F)c(-c5ccc(CS(C)(=O)=O)nc5)cc4c32)C1 | 14 | 2.4 | 2.4 | > 16 | 1.3 | – | 14 | 18 (≈ 8.47 µg/mL) | 0.16 | – |

| Structure (SMILES) | Papp A→B [1] [×10⁻⁶ cm/s] | efflux ratio (in vitro) | hepatocyte CLint [2] [µL/min/1e6 cells] | IC50 [3] [µM] | logD [4] | hepatocyte CLint [5] [µL/min/1e6 cells] | IC50 [6] [µM] | solubility thermodynamic at 24 h [7] [µM] | IC50 [8] [µM] | pKa [9] |
| --- | --- | --- | --- | --- | --- | --- | --- | --- | --- | --- |
| CO[C@H]1C[C@@H](n2c(=O)n(C)c3cnc4ccc(-c5ccc(OCCCN6CCC6)nc5)cc4c32)C1 | 3.5 | 7.8 | 2.5 | > 24 | 1.4 | 3.3 | > 33 | 770 (≈ 365 µg/mL) | – | – |
| CO[C@H]1C[C@@H](n2c(=O)n(C)c3cnc4ccc(-c5ccc(OCCCN6CCCC6)nc5)cc4c32)C1 | 2.5 | 9.4 | < 1.3 | > 24 | 1.8 | 5.3 | > 33 | > 1100 | 0.00017 | – |
| CO[C@H]1C[C@@H](n2c(=O)n(C)c3cnc4cc(F)c(-c5ccc(CO)nc5)cc4c32)C1 | 29 | 1.1 | 5 | 15 | 2 | – | 23 | 23 (≈ 9.39 µg/mL) | 0.23 | – |
| CC(C)n1c(=O)n(C2CCOCC2)c2c3cc(-c4cccnc4)ccc3ncc21 | – | – | – | > 27.6 | 2.9 | – | – | 41 (≈ 15.9 µg/mL) | > 30 | – |
| CO[C@H]1C[C@@H](n2c(=O)n(C)c3cnc4cc(F)c(-c5ccc(OCCCN(C)C)nc5)cc4c32)C1 | 6.8 | 6.2 | 6.6 | – | 1.8 | 7.9 | > 33 | > 980 | – | 9.3 |
| CN(C)CCCOc1ccc(-c2ccc3ncc4c(c3c2)n([C@H]2CCCOC2)c(=O)n4C)cn1 | 6.5 | – | 3 | – | 1.8 | 6.1 | 27 | > 1000 | – | – |
| CO[C@H]1C[C@@H](n2c(=O)n(C)c3cnc4cc(F)c(-c5ccc(NC(=O)CCCN(C)C)nc5)cc4c32)C1 | 0.4 | 77 | 7 | > 30 | 1.1 | 6.5 | 18 | 870 (≈ 441 µg/mL) | 0.0082 | – |
| COCc1ccc(-c2cc3c(cc2F)ncc2c3n([C@H]3C[C@@H](O)C3)c(=O)n2C)cn1 | 14 | 2.6 | 6 | > 30 | 2 | 2.7 | 15 | 270 (≈ 110 µg/mL) | 0.14 | – |
| CNCCCOc1ccc(-c2ccc3ncc4c(c3c2)n([C@H]2C[C@@H](OC)C2)c(=O)n4C)cn1 | 0.65 | 41 | 4.8 | – | 0.4 | 4.4 | > 33 | 930 (≈ 416 µg/mL) | – | 10.3 |
| CO[C@H]1C[C@@H](n2c(=O)n(C)c3cnc4cc(F)c(-c5ccc(N(C)CCN(C)C)nc5)cc4c32)C1 | 6.3 | – | 18 | > 30 | 2.2 | 5.1 | – | > 1000 | 0.23 | – |
| CN(C)CCCOc1ccc(-c2ccc3ncc4c(c3c2)n([C@@H]2CCCOC2)c(=O)n4C)cn1 | 7.5 | – | 3.7 | > 23 | 1.8 | 5.6 | > 33 | > 1000 | – | – |
| COCc1ccc(-c2cc3c(cc2F)ncc2c3n(C3CCOCC3)c(=O)n2C)cn1 | 43 | 0.8 | 7.5 | > 20 | 2.4 | < 4 | 27 | 99 (≈ 41.8 µg/mL) | 0.45 | – |
| COCc1ccc(-c2ccc3ncc4c(c3c2)n(C2CCOCC2)c(=O)n4C)cn1 | 32 | – | 63 | > 13 | 2.3 | < 3 | > 33 | 19 (≈ 7.68 µg/mL) | – | – |
| Cn1c(=O)n(C2CCOCC2)c2c3cc(-c4ccc(OCCCN5CCCCC5)nc4)c(F)cc3ncc21 | 6.4 | 2.2 | 5.1 | > 29 | 2.1 | 5.3 | > 33 | 310 (≈ 161 µg/mL) | 0.0012 | – |
| CN(C)CCCOc1ccc(-c2ccc3ncc4c(c3n2)n(C2CCOCC2)c(=O)n4C)cn1 | – | – | 9.2 | 2 | 1.6 | 12.8 | – | – | 0.0017 | – |
| O=c1[nH]c2cnc3ccc(-c4cccnc4)cc3c2n1C1CCOCC1 | – | – | – | 0.051 | 2.4 | – | – | 12 (≈ 4.16 µg/mL) | – | – |
| CCC(CC)CNc1c(C(N)=O)cnc2cc(F)c(-c3cnc(NCCN4CCCC4)nc3)cc12 | 0.8 | 28 | – | > 30 | 2.8 | – | – | – | 0.0086 | – |
